Legend:
[1] = tested on: Puccinia recondita f. Sp. Tritici; assay: Fungicidal activity against Puccinia recondita f. sp. tritici / wheat / leaf disc preventative (brown rust); format: in vivo; details: foliar, 200 ppm in the applied formulation, wheat leaf segments cv. Kanzler, preventative (inoculated 1 day after application), assessed 7 to 9 days after application, compared to untreated, read-out: disease control
Protocol: Leaf disks or leaf segments of various plant species are cut from plants grown in a greenhouse. The cut leaf disks or segments are placed in multiwell plates (24-well format) onto water agar. The leaf disks are sprayed with a test solution before (preventative) or after (curative) inoculation. Compounds to be tested are prepared as DMSO solutions (max. 10 mg/ml) which are diluted to the appropriate concentration with 0.025% Tween20 just before spraying. The inoculated leaf disks or segments are incubated under defined conditions (temperature, relative humidity, light, etc.) according to the respective test system. A single evaluation of disease level is carried out 3 to 14 days after inoculation, depending on the pathosystem. Percent disease control relative to the untreated check leaf disks or segments is then calculated. Example 1: Fungicidal Activity Against Puccinia recondita f. Sp. Tritici/Wheat/Leaf Disc Preventative (Brown Rust) Wheat leaf segments cv. Kanzler were placed on agar in multiwell plates (24-well format) and sprayed with the formulated test compound diluted in water. The leaf disks were inoculated with a spore suspension of the fungus 1 day after application. The inoculated leaf segments were incubated at 19° C. and 75% relative humidity (rh) under a light regime of 12 hours light/12 hours darkness in a climate cabinet and the activity of a compound was assessed as percent disease control compared to untreated when an appropriate level of disease damage appears in untreated check leaf segments (7 to 9 days after application). The following compounds at 200 ppm in the applied formulation give at least 80% disease control in this test when compared to untreated control leaf disks under the same conditions, which show extensive disease development.

[2] = tested on: Uromyces viciae-fabael; assay: Fungicidal activity against Uromyces viciae-fabae / field bean / leaf disc preventative (faba-bean rust); format: in vivo; details: foliar, 288 h, 100 ppm in the applied formulation, field bean leaf discs, preventative (inoculated two hours after application), assessed 12 days after application, compared to untreated, read-out: disease control
Protocol: Leaf disks or leaf segments of various plant species are cut from plants grown in a greenhouse. The cut leaf disks or segments are placed in multiwell plates (24-well format) onto water agar. The leaf disks are sprayed with a test solution before (preventative) or after (curative) inoculation. Compounds to be tested are prepared as DMSO solutions (max. 10 mg/ml) which are diluted to the appropriate concentration with 0.025% Tween20 just before spraying. The inoculated leaf disks or segments are incubated under defined conditions (temperature, relative humidity, light, etc.) according to the respective test system. A single evaluation of disease level is carried out 3 to 14 days after inoculation, depending on the pathosystem. Percent disease control relative to the untreated check leaf disks or segments is then calculated. Example 5: Fungicidal Activity Against Uromyces viciae-fabael Field Bean/Leaf Disc Preventative (Faba-Bean Rust) Field bean leaf discs are placed on water agar in multiwell plates (96-well format) and 10 μl of the formulated test compound diluted in acetone and a spreader pipetted onto the leaf disc. Two hours after application leaf discs are inoculated by spraying a spore suspension on the lower leaf surface. The leaf discs are incubated in a climate cabinet at 22° C. with 18 hour day and 70% relative humidity. The activity of a compound is assessed as percent disease control compared to untreated when an appropriate level of disease damage appears in untreated check leaf disks (12 days after application). The following compounds at 100 ppm in the applied formulation give at least 80% disease control in this test when compared to untreated control leaf discs under the same conditions, which show extensive disease development.

[3] = tested on: Glomerella lagenarium (Colletotrichum lagenarium); assay: Fungicidal activity against Glomerella lagenarium (Colletotrichum lagenarium) liquid culture / cucumber / preventative (anthracnose); format: cell-based; details: Colletotrichum orbiculare; 20 ppm in the applied formulation; liquid culture in PDB, 24° C.; inhibition of growth measured photometrically 3 to 4 days after application; compared to untreated; read-out: disease control
Protocol: Mycelia fragments or conidia suspensions of a fungus prepared either freshly from liquid cultures of the fungus or from cryogenic storage, are directly mixed into nutrient broth. DMSO solutions of the test compound (max. 10 mg/ml) are diluted with 0.025% Tween20 by a factor of 50 and 10 μl of this solution is pipetted into a microtiter plate (96-well format). The nutrient broth containing the fungal spores/mycelia fragments is then added to give an end concentration of the tested compound. The test plates are incubated in the dark at 24° C. and 96% relative humidity. The inhibition of fungal growth is determined photometrically after 2 to 7 days, depending on the pathosystem, and percent antifungal activity relative to the untreated check is calculated. Example 4: Fungicidal Activity Against Glomerella lagenarium (Colletotrichum lagenarium) Liquid Culture/Cucumber/Preventative (Anthracnose) Conidia of the fungus from cryogenic storage are directly mixed into nutrient broth (PDB—potato dextrose broth). After placing a (DMSO) solution of test compound into a microtiter plate (96-well format), the nutrient broth containing the fungal spores is added. The test plates are incubated at 24° C. and the inhibition of growth is measured photometrically 3 to 4 days after application. The following compounds at 20 ppm in the applied formulation give at least 80% disease control in this test when compared to untreated control under the same conditions, which show extensive disease development.

[4] = tested on: Phakopsora pachyrhizi; assay: Fungicidal activity against Phakopsora pachyrhizi / soybean / leaf disc preventative (Asian soybean rust); format: in vivo; details: foliar, 200 ppm in the applied formulation, soybean leaf disks, preventative (inoculated one day after application), assessed 12 to 14 days after application, compared to untreated, read-out: disease control
Protocol: Leaf disks or leaf segments of various plant species are cut from plants grown in a greenhouse. The cut leaf disks or segments are placed in multiwell plates (24-well format) onto water agar. The leaf disks are sprayed with a test solution before (preventative) or after (curative) inoculation. Compounds to be tested are prepared as DMSO solutions (max. 10 mg/ml) which are diluted to the appropriate concentration with 0.025% Tween20 just before spraying. The inoculated leaf disks or segments are incubated under defined conditions (temperature, relative humidity, light, etc.) according to the respective test system. A single evaluation of disease level is carried out 3 to 14 days after inoculation, depending on the pathosystem. Percent disease control relative to the untreated check leaf disks or segments is then calculated. Example 3: Fungicidal Activity Against Phakopsora pachyrhizi/Soybean/Leaf Disc Preventative (Asian Soybean Rust) Soybean leaf disks are placed on water agar in multiwell plates (24-well format) and sprayed with the formulated test compound diluted in water. One day after application leaf discs are inoculated by spraying a spore suspension on the lower leaf surface. After an incubation period in a climate cabinet of 24-36 hours in darkness at 20° C. and 75% rh leaf disc are kept at 20° C. with 12 h light/day and 75% rh. The activity of a compound is assessed as percent disease control compared to untreated when an appropriate level of disease damage appears in untreated check leaf disks (12 to 14 days after application). The following compounds at 200 ppm in the applied formulation give at least 80% disease control in this test when compared to untreated control leaf disks under the same conditions, which show extensive disease development.

Row | Compound | pest or weed control at 200 ppm [1] | pest or weed control at 100 ppm [2] | inhibition of growth at 20 ppm [3] | pest or weed control at 200 ppm [4]
1 | O=C(NCCCCc1ccccc1)c1ccc(-c2noc(C(F)(F)F)n2)c(F)c1 [Compound 1.1, 3-fluoro-N-(4-phenylbutyl)-4-[5-(trifluoromethyl)-1,2,4-oxadiazol-3-yl]benzamide] | ≥ 80% | ≥ 80% | ≥ 80% | 
2 | Cc1ccc(C)c(CNC(=O)c2ccc(-c3noc(C(F)(F)F)n3)c(F)c2)c1 [Compound 1.3, N-[(2,5-dimethyl-phenyl)methyl]-3-fluoro-4-[5-(trifluoromethyl)-1,2,4-oxadiazol-3-yl]benzamide] | ≥ 80% | ≥ 80% |  | ≥ 80%
3 | O=C(NC1CCSCC1)c1ccc(-c2noc(C(F)(F)F)n2)c(F)c1 [Compound 1.7, 3-fluoro-N-tetrahydro-thiopyran-4-yl-4-[5-(trifluoromethyl)-1,2,4-oxadiazol-3-yl]benzamide] |  | ≥ 80% |  | 
4 | O=C(Nc1ccnc2ncnn12)c1ccc(-c2noc(C(F)(F)F)n2)c(F)c1 [Compound 1.9, 3-fluoro-N-([1,2,4]triazolo[1,5-a]pyrimidin-7-yl)-4-[5-(trifluoromethyl)-1,2,4-oxadiazol-3-yl]benzamide] | ≥ 80% | ≥ 80% | ≥ 80% | 
5 | CN1CCC2(CC1)CC(NC(=O)c1ccc(-c3noc(C(F)(F)F)n3)c(F)c1)C2 [Compound 1.11, 3-fluoro-N-(7-methyl-7-azaspiro[3.5]nonan-2-yl)-4-[5-(trifluoromethyl)-1,2,4-oxadiazol-3-yl]benzamide] |  | ≥ 80% |  | ≥ 80%
6 | O=C(NC1CCc2ccccc21)c1ccc(-c2noc(C(F)(F)F)n2)c(F)c1 (centres unmarked) [Compound 1.15, 3-fluoro-N-indan-1-yl-4-[5-(trifluoromethyl)-1,2,4-oxadiazol-3-yl]benzamide] | ≥ 80% | ≥ 80% |  | ≥ 80%
7 | CCOc1ccc(CN(C(=O)c2ccc(-c3noc(C(F)(F)F)n3)c(F)c2)C(C)C)cc1OCC [Compound 1.17, N-[(3,4-diethoxyphenyl)methyl]-3-fluoro-N-isopropyl-4-[5-(trifluoromethyl)-1,2,4-oxadiazol-3-yl]benzamide] | ≥ 80% | ≥ 80% | ≥ 80% | 
8 | O=C(c1ccc(-c2noc(C(F)(F)F)n2)c(F)c1)N(Cc1ccc2c(c1)OCO2)CC1OCCO1 [Compound 1.18, N-(1,3-benzodioxol-5-ylmethyl)-N-(1,3-dioxolan-2-ylmethyl)-3-fluoro-4-[5-(trifluoromethyl)-1,2,4-oxadiazol-3-yl]benzamide] | ≥ 80% | ≥ 80% | ≥ 80% | 
9 | CCOc1ccc(CN(CC2OCCO2)C(=O)c2ccc(-c3noc(C(F)(F)F)n3)c(F)c2)cc1OCC [Compound 1.19, N-[(3,4-diethoxyphenyl)methyl]-N-(1,3-dioxolan-2-ylmethyl)-3-fluoro-4-[5-(trifluoromethyl)-1,2,4-oxadiazol-3-yl]benzamide] |  | ≥ 80% | ≥ 80% | 
10 | CC1CCCC(C)N1CCNC(=O)c1ccc(-c2noc(C(F)(F)F)n2)c(F)c1 (centres unmarked) [Compound 1.21, N-[2-(2,6-dimethyl-1-piperidyl)ethyl]-3-fluoro-4-[5-(trifluoromethyl)-1,2,4-oxadiazol-3-yl]benzamide] |  | ≥ 80% |  | 
11 | CCC(C#N)(COc1ccc(C#N)cc1)NC(=O)c1ccc(-c2noc(C(F)(F)F)n2)c(F)c1 (centres unmarked) [Compound 1.24, N-[1-cyano-1-[(4-cyanophenoxy)methyl]propyl]-3-fluoro-4-[5-(trifluoromethyl)-1,2,4-oxadiazol-3-yl]benzamide] | ≥ 80% |  |  | 
12 | CCOC(=O)C(CC(F)(F)F)NC(=O)c1ccc(-c2noc(C(F)(F)F)n2)c(F)c1 (centres unmarked) [Compound 1.26, ethyl 4,4,4-trifluoro-2-[[3-fluoro-4-[5-(trifluoromethyl)-1,2,4-oxadiazol-3-yl]benzoyl]amino] butanoate] | ≥ 80% | ≥ 80% |  | 
13 | N#CCCN(CCC#N)C(=O)c1ccc(-c2noc(C(F)(F)F)n2)c(F)c1 [Compound 1.29, N,N-bis(2-cyanoethyl)-3-fluoro-4-[5-(trifluoromethyl)-1,2,4-oxadiazol-3-yl]benzamide] |  | ≥ 80% |  | 
14 | CC(C)C(C)(C#N)NC(=O)c1ccc(-c2noc(C(F)(F)F)n2)c(F)c1 (centres unmarked) [Compound 1.30, N-(1-cyano-1,2-dimethyl-propyl)-3-fluoro-4-[5-(trifluoromethyl)-1,2,4-oxadiazol-3-yl]benzamide] | ≥ 80% |  | ≥ 80% | 
15 | O=C(NCCCn1ccnc1)c1ccc(-c2noc(C(F)(F)F)n2)c(F)c1 [Compound 1.32, 3-fluoro-N-(3-imidazol-1-ylpropyl)-4-[5-(trifluoromethyl)-1,2,4-oxadiazol-3-yl]benzamide] |  | ≥ 80% |  | 
16 | O=C(Nc1ccccc1)c1ccc(-c2noc(C(F)(F)F)n2)c(F)c1 [Compound 1.33, 3-fluoro-N-phenyl-4-[5-(trifluoromethyl)-1,2,4-oxadiazol-3-yl]benzamide] |  | ≥ 80% |  | 
17 | O=C(NC1CC1c1ccccc1)c1ccc(-c2noc(C(F)(F)F)n2)c(F)c1 (centres unmarked) [Compound 1.34, 3-fluoro-N-(2-phenylcyclopropyl)-4-[5-(trifluoromethyl)-1,2,4-oxadiazol-3-yl]benzamide] |  | ≥ 80% |  | 
18 | CC(C)(C)CC(C)(C)NC(=O)c1ccc(-c2noc(C(F)(F)F)n2)c(F)c1 [Compound 1.37, 3-fluoro-N-(1,1,3,3-tetramethylbutyl)-4-[5-(trifluoromethyl)-1,2,4-oxadiazol-3-yl]benzamide] |  | ≥ 80% | ≥ 80% | 

Reference: patent publication US10757941B2, “Microbiocidal oxadiazole derivatives” (SYNGENTA PARTICIPATIONS AG, priority 2016, dated 2020)
